For the assay, the target named is T1, ULK3 (Homo sapiens, UniProt Q6PHR2).
T1 construct: purchased Thermo Fisher Scientific (Life Technologies) SelectScreen
As to the kind of experiment: SelectScreen LanthaScreen. The conditions noted are these: 1 µM. In kind it is binding. Put shortly:
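NU5455 was profiled across the SelectScreen Broad panel of kinase activity and binding assays. Z'LYTE reactions such as CSF1R ran at apparent Km ATP, while the Adapta CAMK1 assay used ATP listed as 10. Values are given as percent.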

T1 sequence (Q6PHR2 whole entry): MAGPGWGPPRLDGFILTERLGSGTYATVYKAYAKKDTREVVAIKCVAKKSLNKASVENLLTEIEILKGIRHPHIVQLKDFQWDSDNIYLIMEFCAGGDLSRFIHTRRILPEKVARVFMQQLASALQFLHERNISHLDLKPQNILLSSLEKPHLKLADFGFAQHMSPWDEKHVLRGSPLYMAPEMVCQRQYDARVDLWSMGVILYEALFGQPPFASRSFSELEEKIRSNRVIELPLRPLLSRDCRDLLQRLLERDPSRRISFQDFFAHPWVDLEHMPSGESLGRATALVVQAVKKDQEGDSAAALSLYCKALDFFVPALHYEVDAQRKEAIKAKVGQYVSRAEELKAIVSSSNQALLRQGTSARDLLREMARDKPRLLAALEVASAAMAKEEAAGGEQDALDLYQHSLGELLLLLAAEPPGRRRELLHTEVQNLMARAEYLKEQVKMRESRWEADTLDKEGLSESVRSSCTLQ

Take `CN(C(=O)CN1CCOCC1)c1ccc2sc3c(-c4cccc5c(=O)cc(N6CC7CCC(C6)O7)oc45)cccc3c2c1` [NU5455]: the “% displacement” value came to 4.5%.

For the origin of these results see PMC6934184, “Selective DNA-PKcs inhibition extends the therapeutic index of localized radiotherapy and chemotherapy” (The Journal of Clinical Investigation, 2019).
